Reference: patent US20240116921A1, “LACTAM (HETERO)[…] DERIVATIVES AS INHIBITORS OF ERBB2” (EnLiven Therapeutics, Inc., priority 2020, published 2024)

Columns and labels:
[1] = target: Ba/F3 ERBB2 A775_G776insYVMA (Homo sapiens, UniProt P04626, DUP772-775, cells depend on it); assay: Cell viability assay, Ba/F3 ERBB2 A775_G776insYVMA; type: cell-based, mouse; conditions: Ba/F3 ERBB2 YVMA cells, cell viability, 72 hours, CellTiter Glo; Table B5; read-out: Ba/F3 ERBB2 YVMA, IC50
Method: Cells were treated with compounds, and cell viability was measured as a metric of kinase inhibition.
The Ba/F3 cell line is IL-3-dependent mouse cell line derived from the C3H mouse strain. Ba/F3 cell lines were engineered to express human ERBB2 or EGFR kinases, rendering the cells IL-3 independent. The lines were generated via retroviral transduction utilizing a Moloney murine leukemia virus (MMLV) promoter, and constructs are stably integrated into the cell genome. The sequences of the ERBB2 and EGFR genes used were NCBI Reference Sequences NM_004448.3 and NM_005228.3, respectively.
Similarly, Ba/F3 cell lines engineered to express EGFR, ERBB2, or ERBB2 mutants were grown, harvested, counted and seeded at 3000 cells per well in 96-well plates. A subset of wells contained media only (low control, “LC”).
Table B1 provides the growth media and number of cells seeded per well for the each cell line.
Plates were placed in a 37° C., 5% CO2 incubator for 72 hours. Plates were then removed from the incubator and equilibrated for 15 minutes at room temperature. 40 μl of CellTiter Glo reagent (Promega) was added to measure the relative level of metabolically active cells by quantifying intracellular ATP concentrations. Plates were incubated for 30 minutes at room temperature, and luminescence was measured. […] Graphical curves were fitted using a nonlinear regression model with a sigmoidal dose response.

[2] = target: T1, phosphorylated EGFR (pEGFR) (Homo sapiens, UniProt P00533); assay: Detection of phosphorylated EGFR (pEGFR) in EGF-stimulated A431 cells; type: cell-based; conditions: A431 cells (10% FBS), 4 hours incubation, EGF 30 ng/mL 10 minutes, AlphaLISA
T1 construct: performed to measure phosphorylated EGFR levels using A431 cells (10% FBS); endogenous in cells; host or cells: A431
T1 sequence (P00533 25-1210): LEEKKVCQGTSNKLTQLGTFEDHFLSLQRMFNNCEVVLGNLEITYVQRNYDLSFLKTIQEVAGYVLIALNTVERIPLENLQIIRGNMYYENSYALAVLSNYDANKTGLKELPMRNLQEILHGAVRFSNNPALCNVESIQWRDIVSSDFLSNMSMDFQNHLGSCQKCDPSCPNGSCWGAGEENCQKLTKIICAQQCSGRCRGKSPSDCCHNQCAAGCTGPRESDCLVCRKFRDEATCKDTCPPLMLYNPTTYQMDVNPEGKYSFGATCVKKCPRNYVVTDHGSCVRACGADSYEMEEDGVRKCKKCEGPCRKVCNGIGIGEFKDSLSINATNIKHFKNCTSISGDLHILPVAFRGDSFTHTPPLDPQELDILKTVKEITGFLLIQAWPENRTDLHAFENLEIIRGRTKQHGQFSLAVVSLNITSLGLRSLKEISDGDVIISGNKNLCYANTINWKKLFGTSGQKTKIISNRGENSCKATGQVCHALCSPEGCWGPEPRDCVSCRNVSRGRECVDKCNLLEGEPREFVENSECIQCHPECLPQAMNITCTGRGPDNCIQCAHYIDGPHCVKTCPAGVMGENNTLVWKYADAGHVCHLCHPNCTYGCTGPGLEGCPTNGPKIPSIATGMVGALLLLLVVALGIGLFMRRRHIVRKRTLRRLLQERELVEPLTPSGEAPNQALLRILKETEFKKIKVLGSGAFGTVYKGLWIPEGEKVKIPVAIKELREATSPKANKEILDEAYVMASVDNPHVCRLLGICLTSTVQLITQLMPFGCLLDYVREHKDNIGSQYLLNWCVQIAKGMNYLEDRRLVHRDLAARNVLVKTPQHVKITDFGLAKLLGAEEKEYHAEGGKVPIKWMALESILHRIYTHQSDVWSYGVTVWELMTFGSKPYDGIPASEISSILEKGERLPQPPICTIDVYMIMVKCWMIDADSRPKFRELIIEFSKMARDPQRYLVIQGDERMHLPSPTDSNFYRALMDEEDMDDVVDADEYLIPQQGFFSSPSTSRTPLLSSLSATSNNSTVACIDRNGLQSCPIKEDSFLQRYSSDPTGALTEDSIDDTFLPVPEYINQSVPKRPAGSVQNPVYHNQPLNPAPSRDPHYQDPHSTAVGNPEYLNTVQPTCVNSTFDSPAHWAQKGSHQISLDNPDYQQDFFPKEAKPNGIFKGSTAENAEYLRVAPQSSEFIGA
Method: Enzyme-linked immunosorbent assays (ELISA) were performed to measure phosphorylated EGFR levels using A431 cells (10% FBS). A431 (1.0*10^4 cells/40 μl/well) cells were seeded in 384 well. Compounds were dissolved in DMSO, serially diluted in DMSO and then were added, mixed, and incubated for 4 hours at 37° C., 5% CO2. Following the 4-hours incubation, cells were stimulated for 10 minutes with EGF (Invitrogen, cat #PHG0311) at a final concentration of 30 ng/mL in the incubator. The media was aspirated and cells were lysed in 10 μL lysis buffer with protease and phosphatase inhibitors (PerkinElmer, cat #ALSU-PEGFR-A50K). The plates were placed on a shaker for 5 minutes and then incubated for 30 min at 4° C. for complete lysis. The lysate was transferred to an Optiplate (Perkin Elmer, cat #6007290).
Acceptor mix (PerkinElmer, cat #ALSU-PEGFR-A50K) was prepared just before use and 5 μL was dispensed to all the wells, followed by a 1.5-2 h incubation at room temperature in dark. The donor mix (PerkinElmer, cat #ALSU-PEGFR-A50K) was prepared under low light conditions prior to use and […] of donor mix was added to all the wells under subdued lighting or green filters. The plates were placed on a shaker for 5 min, sealed, and incubated overnight at room temperature in dark. Plates were read on the Envision (PerkinElmer) using standard AlphaLISA settings.
The percentage of inhibition on EGFR phosphorylation was calculated following equation: % Inhibition=100×(LumHC−LumSample)/(LumHC−LumLC). The low and high controls (LC/HC) are generated from lysate from wells with cells treated with DMSO or […] Staurosporine (BioAustralis, cat #BIA-S1086), […]. IC50 values were calculated by fitting the Curve using XLfit (v5.3.1.3), equation 201: Y=Bottom+(Top−Bottom)/(1+10^((Log IC50−X)*HillSlope)).

[3] = target: T2, phosphorylated ERBB2 (pERBB2) (Homo sapiens, UniProt P04626); assay: Detection of phosphorylated ERBB2 (pERBB2) by ELISA in BT-474 cells; type: cell-based; conditions: four hours incubation
T2 construct: endogenous in cells; host or cells: BT-474
T2 sequence (P04626 23-1255): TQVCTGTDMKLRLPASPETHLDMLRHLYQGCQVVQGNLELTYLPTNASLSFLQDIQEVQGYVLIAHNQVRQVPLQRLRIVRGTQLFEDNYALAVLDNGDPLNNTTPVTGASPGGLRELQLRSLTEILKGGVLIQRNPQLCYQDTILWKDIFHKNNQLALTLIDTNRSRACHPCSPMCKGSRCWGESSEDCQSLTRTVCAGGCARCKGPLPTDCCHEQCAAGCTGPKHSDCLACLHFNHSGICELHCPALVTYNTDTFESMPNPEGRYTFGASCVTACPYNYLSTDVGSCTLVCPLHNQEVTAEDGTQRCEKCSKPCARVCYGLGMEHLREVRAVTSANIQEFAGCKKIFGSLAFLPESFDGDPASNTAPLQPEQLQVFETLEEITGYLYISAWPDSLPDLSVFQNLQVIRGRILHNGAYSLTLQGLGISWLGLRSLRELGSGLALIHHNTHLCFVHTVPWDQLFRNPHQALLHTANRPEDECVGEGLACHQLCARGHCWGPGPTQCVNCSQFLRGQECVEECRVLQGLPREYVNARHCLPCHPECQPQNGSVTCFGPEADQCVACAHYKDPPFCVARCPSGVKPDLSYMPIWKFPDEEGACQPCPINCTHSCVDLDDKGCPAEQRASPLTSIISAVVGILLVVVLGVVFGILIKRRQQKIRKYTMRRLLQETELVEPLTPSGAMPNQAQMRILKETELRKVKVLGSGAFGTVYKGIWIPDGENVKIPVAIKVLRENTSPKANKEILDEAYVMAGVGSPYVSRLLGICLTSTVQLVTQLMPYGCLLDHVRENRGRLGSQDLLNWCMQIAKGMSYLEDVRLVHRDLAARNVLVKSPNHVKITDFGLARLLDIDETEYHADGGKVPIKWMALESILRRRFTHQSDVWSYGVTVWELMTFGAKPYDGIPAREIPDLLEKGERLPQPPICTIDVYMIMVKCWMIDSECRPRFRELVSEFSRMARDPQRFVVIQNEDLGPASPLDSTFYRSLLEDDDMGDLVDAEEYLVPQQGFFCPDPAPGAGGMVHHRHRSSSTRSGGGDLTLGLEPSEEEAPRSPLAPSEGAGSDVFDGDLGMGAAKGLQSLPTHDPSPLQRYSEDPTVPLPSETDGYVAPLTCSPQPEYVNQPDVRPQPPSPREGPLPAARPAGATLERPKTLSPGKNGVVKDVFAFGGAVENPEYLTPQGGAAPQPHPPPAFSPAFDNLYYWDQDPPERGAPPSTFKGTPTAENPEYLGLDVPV
Method: BT-474 cells were seeded into a 96-well at 2.0*10^4 cells/100 μl/well.
Compounds were dissolved and serially diluted in DMSO. The compounds were then were added, mixed, and incubated for four hours at 37° C., 5% CO2. Compounds were added using four-fold dilutions at final concentrations ranging from 10 μM to 0.01 nM.
Following the four hour incubation with compounds, cell lysates were prepared.
Plates were centrifuged for 5 min at 3000 RPM, and supernatant was removed from each well. Cells were washed 3 times by resuspension in 150 μl PBS, followed by centrifugation and removal of the supernatant, as above. […] Cells were incubated with lysis buffer for 1 hour at 4° C., and then stored at −80° C.
Enzyme-linked immunosorbent assays (ELISA) were performed to measure phosphorylated ERBB2 levels. […] The next day, plates were washed with PBS+0.05% Tween20 (PBST). 150 μl of 5% BSA blocking solution was added for 1 hour at room temperature, with shaking. Plates were washed with PBST. Cell lysates were thawed and 100 μl of lysate was added to the ELISA plate. The plates were incubated for 2 hours at room temperature, with shaking. […] Plates were incubated for 1 hour at room temperature, with shaking. Plates were then washed with PBST, and 100 μl TMB substrate solution (R&D Systems, cat #DY999) was added. Plate were incubated in the dark for 20 minutes at room temperature. 50 μl of Stop solution (R&D Systems, cat #DY994) (50 μl) was added to each well and mixed.
Optical density at 450 nm was read on an EnSpire plate reader (Perkin Elmer). The remaining kinase activity by calculated using the following formula: % Relative activity=100×(A450sample−A450LC)/(A450HC−A450LC). The low and high control values (“LC” and “HC”) were generated from lysate from wells without cells or with cells treated with 0.1% DMSO, respectively.

Ba/F3 ERBB2 A775_G776insYVMA, sequence (P04626 with tags, fused parts or gaps DUP772-775): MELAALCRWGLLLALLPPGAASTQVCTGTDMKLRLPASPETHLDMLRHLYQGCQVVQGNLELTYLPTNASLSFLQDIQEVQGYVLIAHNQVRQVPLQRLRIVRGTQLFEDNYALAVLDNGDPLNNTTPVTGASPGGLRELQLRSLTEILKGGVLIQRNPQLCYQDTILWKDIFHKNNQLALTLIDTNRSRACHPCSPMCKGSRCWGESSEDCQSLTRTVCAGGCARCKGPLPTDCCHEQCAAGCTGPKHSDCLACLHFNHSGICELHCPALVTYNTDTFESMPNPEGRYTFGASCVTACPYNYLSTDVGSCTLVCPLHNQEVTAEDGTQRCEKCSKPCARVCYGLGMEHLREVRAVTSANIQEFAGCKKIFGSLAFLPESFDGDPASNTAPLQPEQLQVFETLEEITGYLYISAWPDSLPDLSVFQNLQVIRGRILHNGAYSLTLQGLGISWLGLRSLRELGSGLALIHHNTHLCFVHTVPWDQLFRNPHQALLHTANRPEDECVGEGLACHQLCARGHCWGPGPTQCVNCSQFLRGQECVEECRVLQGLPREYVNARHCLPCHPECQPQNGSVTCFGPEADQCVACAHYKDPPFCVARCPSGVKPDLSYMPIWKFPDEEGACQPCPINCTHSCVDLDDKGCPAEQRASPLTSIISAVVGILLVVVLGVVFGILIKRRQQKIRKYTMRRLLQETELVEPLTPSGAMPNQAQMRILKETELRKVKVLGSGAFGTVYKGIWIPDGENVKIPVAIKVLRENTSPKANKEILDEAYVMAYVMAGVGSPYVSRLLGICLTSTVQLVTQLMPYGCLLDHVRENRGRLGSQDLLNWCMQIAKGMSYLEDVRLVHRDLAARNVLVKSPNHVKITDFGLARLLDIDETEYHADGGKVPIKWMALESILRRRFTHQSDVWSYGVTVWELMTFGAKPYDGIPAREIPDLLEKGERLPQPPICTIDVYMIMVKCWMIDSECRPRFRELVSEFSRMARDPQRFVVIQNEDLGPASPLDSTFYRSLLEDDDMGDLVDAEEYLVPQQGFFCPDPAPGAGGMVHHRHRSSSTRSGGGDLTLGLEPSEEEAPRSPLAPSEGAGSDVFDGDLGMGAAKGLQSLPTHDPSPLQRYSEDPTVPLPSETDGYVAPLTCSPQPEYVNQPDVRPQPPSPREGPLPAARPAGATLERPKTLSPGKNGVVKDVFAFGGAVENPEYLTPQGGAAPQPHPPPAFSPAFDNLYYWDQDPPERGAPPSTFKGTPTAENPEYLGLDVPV

Row | IC50 [2] [nM] | IC50 [3] [nM] | Compound | GI50 [1] [nM]
1 | 503 | 43.7 | [2H]C([2H])([2H])N(C/C=C1\CCN(c2ccc3ncnc(Nc4ccc(Oc5ccc6c(c5)ncn6C)c(C)c4)c3n2)C1=O)C([2H])([2H])[2H] [Compound 105, (E)-3-(2-(bis(methyl-d3)amino)ethylidene)-1-(4-((3-methyl-4-((1-methyl-1H-benzo[d]imidazol-5-yl)oxy)phenyl)amino)pyrido[3,2-d]pyrimidin-6-yl)pyrrolidin-2-one] | 2.17
2 | > 10000 | 273 | Cc1cc(Nc2ncnc3cnc(N4CC(C)/C(=C\CN(C)C)C4=O)cc23)c(F)cc1Oc1ccc2c(c1)nnn2C (single isomer, unassigned) [Example S115, Enantiomer #2, (3E)-3-[2-(dimethylamino)ethylidene]-1-[4-({2-fluoro-5-methyl-4-[(1-methyl-1,2,3-benzotriazol-5-yl)oxy]phenyl}amino)pyrido[3,4-d]pyrimidin-6-yl]-4-methylpyrrolidin-2-one] | 286
3 | > 10000 | 1190 | C=C1CCN(c2cc3c(Nc4ccc(Oc5ccn6ncnc6c5)c(Cl)c4)ncnc3cc2OCCN(C)C)C1=O [Compound 25, 1-{4-[(3-chloro-4-{[1,2,4]triazolo[1,5-a]pyridin-7-yloxy}phenyl)amino]-7-[2-(dimethylamino)ethoxy]quinazolin-6-yl}-3-methylidenepyrrolidin-2-one] | > 500
4 | 6100 | 36.6 | C=C1C(=O)N(c2ccc3ncnc(Nc4ccc(Cc5ccn6ncnc6c5)c(C)c4)c3c2)C2CC12 (single isomer, unassigned) [Example S79, Enantiomer #1, 2-(4-((4-([1,2,4]triazolo[1,5-a]pyridin-7-ylmethyl)-3-methylphenyl)amino)quinazolin-6-yl)-4-methylene-2-azabicyclo[3.1.0]hexan-3-one] | 32.1
5 | > 10000 | 14.3 | Cc1cc(Nc2ncnc3ccc(N4CC/C(=C\C5CN(C)C5)C4=O)nc23)ccc1Oc1ccn2ncnc2c1 [Compound 139, (3E)-1-{4-[(3-methyl-4-{[1,2,4]triazolo[1,5-a]pyridin-7-yloxy}phenyl)amino]pyrido[3,2-d]pyrimidin-6-yl}-3-[(1-methylazetidin-3-yl)methylidene]pyrrolidin-2-one] | 15.7
6 | 158 | 11.9 | Cc1cc(Nc2ncnc3ccc(N4CC(C)C(=CCN(C)C)C4=O)nc23)ccc1Oc1ccn2ncnc2c1 (single isomer, unassigned) [Example S98, Enantiomer #1, 3-[2-(dimethylamino)ethylidene]-4-methyl-1-{4-[(3-methyl-4-{[1,2,4]triazolo[1,5-a]pyridin-7-yloxy}phenyl)amino]pyrido[3,2-d]pyrimidin-6-yl}pyrrolidin-2-one] | 1.13
7 | > 10000 | 30.7 | Cc1cc(Nc2ncnc3ccc(N4CC/C(=C\CCN5CCN(C)CC5)C4=O)cc23)ccc1Oc1ccn2ncnc2c1 [Compound 40, (3E)-1-{4-[(3-methyl-4-{[1,2,4]triazolo[1,5-a]pyridin-7-yloxy}phenyl)amino]quinazolin-6-yl}-3-[3-(4-methylpiperazin-1-yl)propylidene]pyrrolidin-2-one] | > 500
8 | 1460 | 11.7 | Cc1cc(Nc2ncnc3ccc(N4CC/C(=C\CCN(C)C)C4=O)cc23)ccc1Oc1ccn2ncnc2c1 [Compound 26, (3E)-3-[3-(dimethylamino)propylidene]-1-{4-[(3-methyl-4-{[1,2,4]triazolo[1,5-a]pyridin-7-yloxy}phenyl)amino]quinazolin-6-yl}pyrrolidin-2-one] | 8.61
9 | > 10000 | 19.2 | [2H]C([2H])([2H])n1nnc2cc(Oc3ccc(Nc4ncnc5ccc(N6CC/C(=C\CN(C)C)C6=O)nc45)cc3C)ccc21 [Compound 117, (E)-3-(2-(dimethylamino)ethylidene)-1-(4-((3-methyl-4-((1-(methyl-d3)-1H-benzo[d][1,2,3]triazol-5-yl)oxy)phenyl)amino)pyrido[3,2-d]pyrimidin-6-yl)pyrrolidin-2-one] | 2
